Test results reported in patent US20080287398A1, “COLD MENTHOL RECEPTOR-1 ANTAGONISTS” (priority 2007, published 2008).
“And” between values parts separate entries of the source, which are not always exact repeats. Identical values can stand only once. Like-named read-outs stand apart in the source and are kept apart here.

Target: T1, canine TRPM8 (Canis lupus familiaris, UniProt Q1A7N1)
T1 construct: expressed in transfected cells
Assay: In vitro canine TRPM8 functional assay (Ca2+-sensitive dye, FLIPR/FDSS, icilin activation)
Assay type: cell-based
Settings: HEK293 cells expressing canine TRPM8, icilin activation; for IC50: eight-point dose-response; for % I (1 μM): 1 μM compound; for % I (0.5 μM): 0.5 μM compound
In short: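 HEK293 cells stably expressing canine TRPM8, loaded with Calcium 3 dye, preincubated with compound for 5 min before icilin at a concentration giving ~80% maximal response. Ca2+ fluorescence by FLIPR or FDSS; basal-subtracted, normalized to % maximal response, quadruplicate wells, sigmoidal fit for EC50/IC50.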

[1] = HEK293, read-out: % I (0.5 μM), 0.5 μM compound
[2] = HEK293, 0.5 μM compound, read-out: % I (0.5 μM)

T1 sequence (Q1A7N1 1-1104): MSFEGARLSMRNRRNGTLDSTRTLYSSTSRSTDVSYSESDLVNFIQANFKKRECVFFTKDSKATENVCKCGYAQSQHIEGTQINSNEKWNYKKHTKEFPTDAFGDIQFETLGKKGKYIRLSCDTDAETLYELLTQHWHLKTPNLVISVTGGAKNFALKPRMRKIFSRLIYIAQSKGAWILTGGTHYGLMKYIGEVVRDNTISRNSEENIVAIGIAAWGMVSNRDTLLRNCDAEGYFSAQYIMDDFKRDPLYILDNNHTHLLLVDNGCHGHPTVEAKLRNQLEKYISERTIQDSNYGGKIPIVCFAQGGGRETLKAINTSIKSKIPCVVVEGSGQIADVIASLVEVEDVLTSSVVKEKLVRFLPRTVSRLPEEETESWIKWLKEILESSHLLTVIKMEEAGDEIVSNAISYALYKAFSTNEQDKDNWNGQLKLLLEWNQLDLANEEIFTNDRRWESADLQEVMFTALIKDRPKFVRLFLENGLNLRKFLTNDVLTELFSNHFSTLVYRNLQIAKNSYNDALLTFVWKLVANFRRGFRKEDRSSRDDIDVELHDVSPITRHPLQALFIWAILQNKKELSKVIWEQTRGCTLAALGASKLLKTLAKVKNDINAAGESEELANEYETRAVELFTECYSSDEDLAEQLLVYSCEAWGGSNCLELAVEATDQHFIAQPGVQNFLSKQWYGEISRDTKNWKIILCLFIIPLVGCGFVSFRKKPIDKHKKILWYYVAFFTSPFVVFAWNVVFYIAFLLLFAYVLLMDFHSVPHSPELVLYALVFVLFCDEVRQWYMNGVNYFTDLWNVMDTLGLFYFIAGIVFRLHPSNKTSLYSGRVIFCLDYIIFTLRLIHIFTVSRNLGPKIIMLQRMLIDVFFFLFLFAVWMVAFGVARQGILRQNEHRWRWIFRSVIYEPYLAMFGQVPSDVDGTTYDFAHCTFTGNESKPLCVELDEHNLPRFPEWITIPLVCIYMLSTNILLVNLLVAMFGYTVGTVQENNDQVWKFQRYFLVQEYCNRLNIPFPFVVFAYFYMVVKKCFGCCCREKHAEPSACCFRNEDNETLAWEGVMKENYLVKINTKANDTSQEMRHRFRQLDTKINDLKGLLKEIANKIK

CCOP(=O)(OCC)C(Cc1ccc(F)c(F)c1)c1sc2ncccc2c1Br (stereo not shown) [Cpd 132, 1-[(3-Bromo-thieno[2,3-b]pyridin-2-yl)-2-(3,4-difluoro-phenyl)-ethyl]-phosphonic acid diethyl ester]
inhibition at 1 µM (HEK293, read-out: % I (1 μM), 1 μM compound): 102% | IC50 (IC50 (μM)): 0.11 µM

CC(C)OP(=O)(OC(C)C)C(Cc1cccc(F)c1)c1cc2ccccc2s1 (stereo not shown) [Cpd 133]
% I (1 μM): 101% | IC50 (read-out: IC50): 0.34 µM

CC(C)OP(=O)(OC(C)C)C(Cc1cccc(Cl)c1)c1cc2ccccc2s1 (stereo not shown) [Cpd 134]
% I (1 μM): 101% | IC50 (read-out: IC50): 0.34 µM

CCOP(=O)(OCC)C(Cc1ccc(Cl)c(C(F)(F)F)c1)c1sc2ccccc2c1Br (stereo not shown) [Cpd 139]
% I (0.5 μM): 102% | IC50 (read-out: IC50): 0.06 µM

CCOP(=O)(OCC)C(Cc1cc(F)cc(C(F)(F)F)c1)c1sc2ccccc2c1Br (stereo not shown) [Cpd 140]
% I (0.5 μM): 102% | IC50 (read-out: IC50): 0.056 µM

CCOP(=O)(OCC)C(Cc1cccc(C(F)(F)F)c1)c1sc2ccccc2c1Br (stereo not shown) [Cpd 141]
% I (0.5 μM): 100% | IC50 (read-out: IC50): 0.051 µM

CCOP(=O)(OCC)C(Cc1cccc(C(F)(F)F)c1F)c1sc2ccccc2c1Br (stereo not shown) [Cpd 142]
% I (0.5 μM): 101% | IC50 (read-out: IC50): 0.054 µM

CCOP(=O)(OCC)C(Cc1ccc(F)c(OC)c1)c1sc2ccccc2c1Br (stereo not shown) [Cpd 156]
inhibition at 0.5 µM [1]: 103% | IC50 (IC50 (μM)): 0.015 µM and 0.032 µM

CC(C)OP(=O)(OC(C)C)C(Cc1ccc(C(F)(F)F)c(F)c1)c1sc2ccccc2c1Cl (stereo not shown) [Cpd 174]
% I (0.5 μM): 104% | IC50 (read-out: IC50): 0.089 µM

CC(C)OP(=O)(OC(C)C)C(Cc1ccc(C(F)(F)F)cc1)c1sc2ccccc2c1Cl (stereo not shown) [Cpd 175]
% I (0.5 μM): 104% | IC50 (read-out: IC50): 0.072 µM

COc1ccc(CC(c2sc3ccccc3c2Cl)P(=O)(OC(C)C)OC(C)C)cc1C(F)(F)F (stereo not shown) [Cpd 176]
% I (0.5 μM): 104% | IC50 (read-out: IC50): 0.131 µM

CC(C)OP(=O)(OC(C)C)C(Cc1cccc(C(F)(F)F)c1Cl)c1sc2ccccc2c1Cl (stereo not shown) [Cpd 177]
% I (0.5 μM): 96% | IC50 (read-out: IC50): 0.139 µM

CC(C)OP(=O)(OC(C)C)C(Cc1cc(C(F)(F)F)ccc1Cl)c1sc2ccccc2c1Cl (stereo not shown) [Cpd 178]
% I (0.5 μM): 79% | IC50 (read-out: IC50): 0.355 µM

CC(C)OP(=O)(OC(C)C)C(Cc1ccccc1)c1sc2ccccc2c1Cl (stereo not shown) [Cpd 179]
% I (0.5 μM): 103% | IC50 (read-out: IC50): 0.068 µM

CC(C)OP(=O)(OC(C)C)C(Cc1cccc(Cl)c1)c1sc2ccccc2c1Cl (stereo not shown) [Cpd 180]
% I (0.5 μM): 103% | IC50 (read-out: IC50): 0.075 µM

CC(C)OP(=O)(OC(C)C)C(Cc1ccc(Cl)cc1)c1sc2ccccc2c1Cl (stereo not shown) [Cpd 181]
% I (0.5 μM): 103% | IC50 (read-out: IC50): 0.112 µM

CC(C)OP(=O)(OC(C)C)C(Cc1cccc(Br)c1)c1sc2ccccc2c1Cl (stereo not shown) [Cpd 182]
% I (0.5 μM): 104% | IC50 (read-out: IC50): 0.075 µM

CC(C)OP(=O)(OC(C)C)C(Cc1c(Cl)cccc1Cl)c1sc2ccccc2c1Cl (stereo not shown) [Cpd 183]
% I (0.5 μM): 103% | IC50 (read-out: IC50): 0.131 µM

CC(C)OP(=O)(OC(C)C)C(Cc1ccc(OC(F)(F)F)c(Cl)c1)c1sc2ccccc2c1Cl (stereo not shown) [Cpd 184]
% I (0.5 μM): 104% | IC50 (read-out: IC50): 0.057 µM

CC(C)OP(=O)(OC(C)C)C(Cc1cccc(Cl)c1F)c1sc2ccccc2c1Cl (stereo not shown) [Cpd 185]
% I (0.5 μM): 103% | IC50 (read-out: IC50): 0.071 µM

CC(C)OP(=O)(OC(C)C)C(Cc1cc(F)cc(Cl)c1)c1sc2ccccc2c1Cl (stereo not shown) [Cpd 186]
% I (0.5 μM): 104% | IC50 (read-out: IC50): 0.051 µM

CC(C)OP(=O)(OC(C)C)C(Cc1ccc(OC(F)(F)F)cc1)c1sc2ccccc2c1Cl (stereo not shown) [Cpd 187]
% I (0.5 μM): 103% | IC50 (read-out: IC50): 0.062 µM

CC(C)OP(=O)(OC(C)C)C(Cc1ccc(F)c(C(F)(F)F)c1)c1sc2ccccc2c1Cl (stereo not shown) [Cpd 188]
% I (0.5 μM): 103% | IC50 (read-out: IC50): 0.064 µM

CC(C)OP(=O)(OC(C)C)C(Cc1ccc(C(F)(F)F)cc1F)c1sc2ccccc2c1Cl (stereo not shown) [Cpd 191]
% I (0.5 μM): 104% | IC50 (read-out: IC50): 0.125 µM

CC(C)OP(=O)(OC(C)C)C(Cc1cccc(F)c1)c1sc2ccccc2c1Br (stereo not shown) [Cpd 192]
% I (1 μM): 103% | IC50 (read-out: IC50): 0.038 µM

CC(C)OP(=O)(OC(C)C)C(Cc1cc(F)cc(F)c1)c1sc2ccccc2c1Br (stereo not shown) [Cpd 193]
% I (1 μM): 103% | IC50 (read-out: IC50): 0.059 µM

CC(C)OP(=O)(OC(C)C)C(Cc1cccc(F)c1F)c1sc2ccccc2c1Br (stereo not shown) [Cpd 194]
% I (1 μM): 103% | IC50 (read-out: IC50): 0.041 µM

CC(C)OP(=O)(OC(C)C)C(Cc1cc(C(F)(F)F)cc(Cl)c1F)c1sc2ccccc2c1Br (stereo not shown) [Cpd 195]
% I (1 μM): 103% | IC50 (read-out: IC50): 0.061 µM

CC(C)OP(=O)(OC(C)C)C(Cc1ccccc1F)c1sc2ccccc2c1Br (stereo not shown) [Cpd 196]
% I (1 μM): 100% | IC50 (read-out: IC50): 0.048 µM

CC(C)OP(=O)(OC(C)C)C(Cc1ccccc1F)c1sc2cccc(Br)c2c1Br (stereo not shown) [Cpd 198]
% I (1 μM): 98% | IC50 (read-out: IC50): 0.357 µM

CC(C)OP(=O)(OC(C)C)C(Cc1ccccc1F)c1sc2cc(Br)ccc2c1Br (stereo not shown) [Cpd 199]
% I (1 μM): 81%

CC(C)OP(=O)(OC(C)C)C(Cc1ccc(F)cc1)c1sc2cc(Br)ccc2c1Br (stereo not shown) [Cpd 200]
% I (1 μM): 81%

COP(=O)(OC)C(Cc1ccc(F)c(F)c1)c1sc2ccccc2c1Br (stereo not shown) [Cpd 201]
% I (1 μM): 100% | IC50 (read-out: IC50): 0.133 µM

Cc1c(C(Cc2ccc(F)c(F)c2)P(=O)(OC(C)C)OC(C)C)oc2cccc(F)c12 (stereo not shown) [Cpd 202]
% I (1 μM): 103% | IC50 (read-out: IC50): 0.053 µM

CCC(C)P(=O)(C(C)CC)C(Cc1ccc(F)c(F)c1)c1sc2ccccc2c1Br (stereo not shown) [Cpd 203]
% I (1 μM): 96% | IC50 (read-out: IC50): 0.457 µM

CCCCOP(=O)(OCCCC)C(Cc1ccc(F)c(F)c1)c1sc2ccccc2c1Br (stereo not shown) [Cpd 209, [1-(3-Bromo-benzo[b]thiophen-2-yl)-2-(3,4-difluoro-phenyl)-ethyl]-phosphonic acid dibutyl ester]
inhibition at 0.5 µM [2]: 104% | IC50 (read-out: IC50): 0.071 µM

COC(=O)COP(=O)(OCC(=O)OC)C(Cc1ccc(F)c(F)c1)c1sc2ccccc2c1Br (stereo not shown) [Cpd 212, {[1-(3-Bromo-benzo[b]thiophen-2-yl)-2-(3,4-difluoro-phenyl)-ethyl]-methoxycarbonylmethoxy-phosphinoyloxy}-acetic acid methyl ester]
inhibition at 0.5 µM [2]: 102% | IC50 (read-out: IC50): 0.119 µM

CCOP(=O)(OCC)C(Cc1ccc(F)c(F)c1)c1sc2ccccc2c1-c1ccccc1 (stereo not shown) [Cpd 214, [2-(3,4-Difluoro-phenyl)-1-(3-phenyl-benzo[b]thiophen-2-yl)-ethyl]-phosphonic acid diethyl ester]
inhibition at 0.5 µM [1]: 101% | IC50 (IC50 (μM)): 0.08 µM

CCOP(=O)(OCC)C(Cc1ccc(F)c(F)c1)c1sc2ccccc2c1-c1cccc(F)c1 (stereo not shown) [Cpd 217, {2-(3,4-Difluoro-phenyl)-1-[3-(3-fluoro-phenyl)-benzo[b]thiophen-2-yl)-ethyl]-phosphonic acid diethyl ester]
inhibition at 0.5 µM [1]: 100% | IC50 (IC50 (μM)): 0.142 µM

CC(C)OP(=O)(OC(C)C)C(Cc1ccc(F)c(F)c1)c1sc2cccc(F)c2c1Br (stereo not shown) [Cpd 221, [1-(3-Bromo-4-fluoro-benzo[b]thiophen-2-yl)-2-(3,4-difluoro-phenyl)-ethyl]-phosphonic acid diisopropyl ester]
inhibition at 0.5 µM [2]: 102% | IC50 (read-out: IC50): 0.032 µM

CCOP(=O)(OCC)C(Cc1ccc(F)c(O)c1)c1sc2ccccc2c1Br (stereo not shown) [Cpd 225, [1-(3-Bromo-benzo[b]thiophen-2-yl)-2-(4-fluoro-3-hydroxy-phenyl)-ethyl]-phosphonic acid diethyl ester]
inhibition at 0.5 µM [1]: 103% | IC50 (IC50 (μM)): 0.027 µM

CC(C)OP(=O)(OC(C)C)[C@H](Cc1ccc(F)c(C(F)(F)F)c1)c1sc2ccccc2c1Br [Cpd 243, (R)-[1-(3-Bromo-benzo[b]thiophen-2-yl)-2-(4-fluoro-3-trifluoromethyl-phenyl)-ethyl]-phosphonic acid diisopropyl ester]
inhibition at 0.5 µM [2]: 80% | IC50 (read-out: IC50): 0.089 µM

CC(C)OP(=O)(OC(C)C)C(Cc1ccc(F)cc1C(F)(F)F)c1sc2ccccc2c1Br (stereo not shown) [Cpd 249]
% I (0.5 μM): 103% | IC50 (read-out: IC50): 0.054 µM

CC(C)OP(=O)(OC(C)C)C(Cc1cccc(SC(F)(F)F)c1)c1sc2ccccc2c1Br (stereo not shown) [Cpd 250]
% I (0.5 μM): 103% | IC50 (read-out: IC50): 0.048 µM

CSc1ccc(CC(c2sc3ccccc3c2Br)P(=O)(OC(C)C)OC(C)C)cc1 (stereo not shown) [Cpd 251]
% I (0.5 μM): 103% | IC50 (read-out: IC50): 0.045 µM

CC(C)OP(=O)(OC(C)C)C(Cc1ccc(S(C)(=O)=O)cc1)c1sc2ccccc2c1Br (stereo not shown) [Cpd 252]
% I (0.5 μM): 44%

CC(C)OP(=O)(OC(C)C)C(Cc1ccc(F)c(Cl)c1)c1sc2ccccc2c1Cl (stereo not shown) [Cpd 253]
% I (0.5 μM): 103% | IC50 (read-out: IC50): 0.034 µM
